Assay results reported in US20230019491A1, “PYRIMIDINE TBK/IKKe INHIBITOR COMPOUNDS AND USES THEREOF” (Merck Patent GmbH, priority 2017, published 2023).
pIC50: −log10 of the molar value.

How the values were obtained:
TBK1 = biological target: T1, TBK1 (Homo sapiens, UniProt Q9UHD2); test: TBK biochemical assay; conditions: 10 point 1:4 dose response, 30 uM top concentration, 90 min at 25° C., LabChip EZ Reader II; read-out: TBK1_IC50
T1 sequence (Q9UHD2 1-729): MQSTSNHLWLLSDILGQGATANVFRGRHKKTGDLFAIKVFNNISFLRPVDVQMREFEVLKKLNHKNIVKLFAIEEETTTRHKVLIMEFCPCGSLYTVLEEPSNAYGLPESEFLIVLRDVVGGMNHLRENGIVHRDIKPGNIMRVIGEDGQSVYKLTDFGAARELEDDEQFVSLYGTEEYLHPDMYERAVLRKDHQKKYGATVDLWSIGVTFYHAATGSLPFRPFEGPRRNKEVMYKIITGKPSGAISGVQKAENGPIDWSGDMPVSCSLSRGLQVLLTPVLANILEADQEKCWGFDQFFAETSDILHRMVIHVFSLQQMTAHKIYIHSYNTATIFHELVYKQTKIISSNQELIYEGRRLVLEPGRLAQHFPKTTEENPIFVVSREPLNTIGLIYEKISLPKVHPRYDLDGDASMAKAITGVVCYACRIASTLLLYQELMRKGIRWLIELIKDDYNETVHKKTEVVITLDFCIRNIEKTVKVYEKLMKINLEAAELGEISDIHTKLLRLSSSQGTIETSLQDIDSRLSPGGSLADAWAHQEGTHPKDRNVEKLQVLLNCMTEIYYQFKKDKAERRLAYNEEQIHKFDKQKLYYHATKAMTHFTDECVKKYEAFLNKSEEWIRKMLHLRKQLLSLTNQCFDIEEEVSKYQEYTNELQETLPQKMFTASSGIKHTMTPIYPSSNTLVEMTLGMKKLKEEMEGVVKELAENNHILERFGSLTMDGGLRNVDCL
Method in brief: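 Substrate and product were separated and quantified by microfluidic mobility-shift read (LabChip). 10 uM staurosporine served as the full-inhibition control, and the reference compound was tested from 1 uM final.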

IKKε = biological target: T2, IKKε (Homo sapiens, UniProt Q14164); test: IKKε biochemical assay; conditions: 10 point 1:4 dose response, 30 uM top concentration, 90 min at 25° C., LabChip EZ Reader II; read-out: IKKε_IC50
T2 sequence (Q14164 1-716): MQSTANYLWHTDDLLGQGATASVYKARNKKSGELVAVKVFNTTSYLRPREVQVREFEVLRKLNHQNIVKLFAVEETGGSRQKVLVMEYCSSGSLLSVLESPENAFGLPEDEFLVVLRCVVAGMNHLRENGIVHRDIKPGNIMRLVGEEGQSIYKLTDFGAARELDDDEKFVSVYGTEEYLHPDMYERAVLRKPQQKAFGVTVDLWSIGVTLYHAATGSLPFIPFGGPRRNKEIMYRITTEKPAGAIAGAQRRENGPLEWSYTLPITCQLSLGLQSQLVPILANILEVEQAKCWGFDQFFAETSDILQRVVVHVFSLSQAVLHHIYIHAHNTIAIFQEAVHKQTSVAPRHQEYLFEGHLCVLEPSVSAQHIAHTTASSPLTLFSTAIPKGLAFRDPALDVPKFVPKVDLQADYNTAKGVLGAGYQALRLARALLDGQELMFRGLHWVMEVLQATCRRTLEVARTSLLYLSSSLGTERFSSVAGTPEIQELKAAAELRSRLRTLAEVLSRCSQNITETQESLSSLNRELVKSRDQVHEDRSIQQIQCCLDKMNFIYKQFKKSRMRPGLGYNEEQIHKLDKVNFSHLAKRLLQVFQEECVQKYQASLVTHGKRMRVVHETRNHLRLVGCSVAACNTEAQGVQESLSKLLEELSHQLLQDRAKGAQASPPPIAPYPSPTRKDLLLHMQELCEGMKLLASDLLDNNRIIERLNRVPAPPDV
Method in brief: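 Compounds in 1% DMSO final were incubated with IKKε enzyme and substrate at 25° C. for 90 min, then stopped. Substrate and product peaks were resolved by LabChip EZ Reader II mobility-shift read-out. Staurosporine at 10 uM final served as the full-inhibition control.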

pIC50 (TBK1) | pIC50 (IKKε) | SMILES
> 7.00 | > 7.00 | COc1nc(Nc2nccc(-c3ccc(OC4CCOCC4)c(C#N)c3)n2)ccc1N1CCN(C(C)=O)CC1 [Example 168, 5-(2-[[5-(4-acetylpiperazin-1-yl)-6-methoxypyridin-2-yl]amino]pyrimidin-4-yl)-2-(oxan-4-yloxy)benzonitrile]
> 7.00 | > 7.00 | COc1nc(Nc2nccc(-c3ccc(OC4CCOCC4)c(C#N)c3)n2)ccc1N1CCN(C2COC2)CC1 [Example 169, 5-{2-[6-Methoxy-5-(4-oxetan-3-yl-piperazin-1-yl)-pyridin-2-ylamino]-pyrimidin-4-yl}-2-(tetrahydro-pyran-4-yloxy)-benzonitrile]
> 7.00 | > 7.00 | COc1nc(Nc2nccc(-c3ccc(OC4CCOCC4F)c(C#N)c3)n2)ccc1N1CCN(C2COC2)CC1 (stereo not drawn) [Example 170, 2-(3-Fluoro-tetrahydro-pyran-4-yloxy)-5-{2-[6-methoxy-5-(4-oxetan-3-yl-piperazin-1-yl)-pyridin-2-ylamino]-pyrimidin-4-yl}-benzonitrile]
> 7.00 | > 7.00 | N#Cc1cc(-c2ccnc(Nc3ccc(N4CCN(C5COC5)CC4)cc3)n2)ccc1OC1CNC1 [Example 171, 2-(azetidin-3-yloxy)-5-[2-([4-[4-(oxetan-3-yl)piperazin-1-yl]phenyl]amino)pyrimidin-4-yl]benzonitrile]
6.00 to 7.00 | 6.00 to 7.00 | C[C@H](O)C(=O)N1CC(Oc2ccc(-c3ccnc(Nc4ccc(N5CCN(C6COC6)CC5)cc4)n3)cc2C#N)C1 [Example 172, 2-([1-[(2S)-2-hydroxypropanoyl]azetidin-3-yl]oxy)-5-[2-([4-[4-(oxetan-3-yl)piperazin-1-yl]phenyl]amino)pyrimidin-4-yl]benzonitrile]
6.00 to 7.00 | 6.00 to 7.00 | C[C@@H](O)C(=O)N1CC(Oc2ccc(-c3ccnc(Nc4ccc(N5CCN(C6COC6)CC5)cc4)n3)cc2C#N)C1 [Example 173, 2-([1-[(2R)-2-hydroxypropanoyl]azetidin-3-yl]oxy)-5-[2-([4-[4-(oxetan-3-yl)piperazin-1-yl]phenyl]amino)pyrimidin-4-yl]benzonitrile]
> 7.00 | > 7.00 | COc1nc(Nc2nccc(-c3ccc(OC4CNC4)c(C#N)c3)n2)ccc1N1CCN(C2COC2)CC1 [Example 174, 2-(azetidin-3-yloxy)-5-[2-([6-methoxy-5-[4-(oxetan-3-yl)piperazin-1-yl]pyridin-2-yl]amino)pyrimidin-4-yl]benzonitrile]
6.00 to 7.00 | 6.00 to 7.00 | COc1nc(Nc2nccc(-c3ccc(OC4CN(C(=O)[C@H](C)O)C4)c(C#N)c3)n2)ccc1N1CCN(C2COC2)CC1 [Example 175, 2-([1-[(2S)-2-hydroxypropanoyl]azetidin-3-yl]oxy)-5-[2-([6-methoxy-5-[4-(oxetan-3-yl)piperazin-1-yl]pyridin-2-yl]amino)pyrimidin-4-yl]benzonitrile]
6.00 to 7.00 | 5.30 to 6.00 | COc1nc(Nc2nccc(-c3ccc(OC4CN(C(=O)[C@@H](C)O)C4)c(C#N)c3)n2)ccc1N1CCN(C2COC2)CC1 [Example 176, 2-([1-[(2R)-2-hydroxypropanoyl]azetidin-3-yl]oxy)-5-[2-([6-methoxy-5-[4-(oxetan-3-yl)piperazin-1-yl]pyridin-2-yl]amino)pyrimidin-4-yl]benzonitrile]

Second part, the compound before the results:

SMILES | pIC50 (TBK1) | pIC50 (IKKε)
N#Cc1cc(-c2ccnc(Nc3cccc(C4CCN(C(CO)CO)CC4)c3)n2)ccc1OC1CCNCC1(F)F (stereo not drawn) [Example 156, 2-(3,3-Difluoro-piperidin-4-yloxy)-5-(2-{3-[1-(2-hydroxy-1-hydroxymethyl-ethyl)-piperidin-4-yl]-phenylamino}-pyrimidin-4-yl)-benzonitrile] | > 7.00 | > 7.00
C[C@H](O)C(=O)N1CCC(Oc2ccc(-c3ccnc(Nc4cccc(C5CCN(C(CO)CO)CC5)c4)n3)cc2C#N)C(F)(F)C1 (stereo partly drawn) [Example 157, 2-[3,3-Difluoro-1-((S)-2-hydroxy-propionyl)-piperidin-4-yloxy]-5-(2-{3-[1-(2-hydroxy-1-hydroxymethyl-ethyl)-piperidin-4-yl]-phenylamino}-pyrimidin-4-yl)-benzonitrile] | > 7.00 | > 7.00
C[C@@H](O)C(=O)N1CCC(Oc2ccc(-c3ccnc(Nc4cccc(C5CCN(C(CO)CO)CC5)c4)n3)cc2C#N)C(F)(F)C1 (stereo partly drawn) [Example 158, 2-[3,3-Difluoro-1-((R)-2-hydroxy-propionyl)-piperidin-4-yloxy]-5-(2-{3-[1-(2-hydroxy-1-hydroxymethyl-ethyl)-piperidin-4-yl]-phenylamino}-pyrimidin-4-yl)-benzonitrile] | > 7.00 | > 7.00
N#Cc1cc(-c2ccnc(Nc3ccc(N4CCN(C5COC5)CC4)cc3)n2)ccc1OC1COC1 [Example 159, 5-[2-([4-[4-(oxetan-3-yl)piperazin-1-yl]phenyl]amino)pyrimidin-4-yl]-2-(oxetan-3-yloxy)benzonitrile] | > 7.00 | > 7.00
COc1nc(Nc2nccc(-c3ccc(OC4COC4)c(C#N)c3)n2)ccc1N1CCN(C2COC2)CC1 [Example 160, 5-[2-([6-methoxy-5-[4-(oxetan-3-yl)piperazin-1-yl]pyridin-2-yl]amino)pyrimidin-4-yl]-2-(oxetan-3-yloxy)benzonitrile] | 6.00 to 7.00 | 6.00 to 7.00
N#Cc1cc(-c2ccnc(Nc3ccc(N4CCN(C5COC5)CC4)cc3)n2)ccc1OC1CCOC1 (stereo not drawn) [Example 161, 5-[2-([4-[4-(oxetan-3-yl)piperazin-1-yl]phenyl]amino)pyrimidin-4-yl]-2-(oxolan-3-yloxy)benzonitrile] | > 7.00 | > 7.00
COc1nc(Nc2nccc(-c3ccc(OC4CCOC4)c(C#N)c3)n2)ccc1N1CCN(C2COC2)CC1 (stereo not drawn) [Example 162, 5-[2-([6-methoxy-5-[4-(oxetan-3-yl)piperazin-1-yl]pyridin-2-yl]amino)pyrimidin-4-yl]-2-(oxolan-3-yloxy)benzonitrile] | > 7.00 | > 7.00
CN1CCN(c2ccc(Nc3nccc(-c4ccc(OC5CCOCC5)c(C#N)c4)n3)cc2)CC1 [Example 163, 5-{2-[4-(4-Methyl-piperazin-1-yl)-phenylamino]-pyrimidin-4-yl}-2-(tetrahydro-pyran-4-yloxy)-benzonitrile] | > 7.00 | > 7.00
CN1CCN(c2ccc(Nc3nccc(-c4ccc(OC5CCOCC5)c(C#N)c4)n3)nc2)CC1 [Example 164, 5-(2-[[5-(4-methylpiperazin-1-yl)pyridin-2-yl]amino]pyrimidin-4-yl)-2-(oxan-4-yloxy)benzonitrile] | > 7.00 | > 7.00
N#Cc1cc(-c2ccnc(Nc3ccc(N4CCN(C5COC5)CC4)cn3)n2)ccc1OC1CCOCC1 [Example 165, 5-{2-[5-(4-Oxetan-3-yl-piperazin-1-yl)-pyridin-2-ylamino]-pyrimidin-4-yl}-2-(tetrahydro-pyran-4-yloxy)-benzonitrile] | > 7.00 | > 7.00
COCCN1CCN(c2ccc(Nc3nccc(-c4ccc(OC5CCOCC5)c(C#N)c4)n3)nc2OC)CC1 [Example 166] | > 7.00 | > 7.00
COc1nc(Nc2nccc(-c3ccc(OC4CCOCC4)c(C#N)c3)n2)ccc1N1CCN(CCO)CC1 [Example 167, 5-[2-([5-[4-(2-hydroxyethyl)piperazin-1-yl]-6-methoxypyridin-2-yl]amino)pyrimidin-4-yl]-2-(oxan-4-yloxy)benzonitrile] | > 7.00 | > 7.00
